{"source": "paper PMC6479714", "about": "“Multiplex Analysis Platform for Endocrine Disruption Prediction Using Zebrafish” (International Journal of Molecular Sciences, 2019)", "key": {"[1]": {"settings": "listed physicochemical property, source not given; cited from earlier work"}, "cyp19a1b - fluorescence": {"test_system": "cyp19a1b - fluorescence", "settings": "0-96 h, cited from earlier work; for EC50: ref [3] (supplement list: Brion 2012); for LogEC50 (cyp19a1b - fluorescence): log of EC50 in μM, ref [3] (supplement list)"}, "vitellogenin 1 (vtg1)": {"test_system": "vitellogenin 1 (vtg1)", "assay": "vtg1 gene expression (qPCR) in exposed zebrafish embryos", "settings": "for EC50: read-out: EC50 vtg1", "procedure": "(§2) Twenty embryos per treatment and replicate were exposed to 3–7 different concentrations of chemical in glass. […] Between 3 and 6 biological replicates were performed per compound and condition in, at least, two independent experiments.\n(§3) At 120 hpf, 20 embryos per condition and replicate were pooled and homogenized in TRIreagent and total RNA extracted following the manufacturer’s protocol. Total RNA concentration was estimated by spectrophotometric absorption at 260 nm in a NanoDrop Spectrophotometer ND-1000 (NanoDrop Technologies; Wilmington, DE, USA). One hundred nanograms of RNA were retrotranscribed to cDNA by reverse transcriptase (Superscript III RT-Enzyme, Invitrogen, Carlsbad, CA, USA) and stored at −20 °C. Aliquots 10-times diluted of cDNA were used to quantify the amounts of specific transcripts in a Lightcycler® 480 system (Roche, Basel, Switzerland) by the SYBR GREEN method. Annealing temperature used in amplification reactions was 60 °C in all cases. […] Relative expression levels were quantified using the ΔΔCt method [82] and ef1a as reference gene [83]"}, "[2]": {"test_system": "brain aromatase (cyp19a1b)", "assay": "cyp19a1b gene expression (qPCR) in exposed zebrafish embryos", "type": "in vivo, zebrafish (Danio rerio)", "settings": "for LogEC50 (cyp19a1b mRNA): log of EC50 in μM, 48-120 h, our study; for EC50: zebrafish embryos exposed 48–120 hpf, mRNA by qPCR", "procedure": "as §2, §3"}, "cyp19a1b - mRNA": {"test_system": "cyp19a1b - mRNA", "settings": "cited from earlier work; for EC50: * mean of an approximate range; for LogEC50 (cyp19a1b - mRNA): log of EC50 in μM"}, "[3]": {"molecular_target": "iodothyronine deiodinase 2 (dio2)", "assay": "dio2 gene expression (qPCR) in exposed zebrafish embryos", "type": "in vivo, zebrafish (Danio rerio)", "settings": "read-out: EC50 dio2", "procedure": "as §2, §3"}, "[4]": {"test_system": "cytosolic sulfotransferase 2 family 2 (sult2st3)", "assay": "sult2st3 gene expression (qPCR) in exposed zebrafish embryos", "type": "in vivo, zebrafish (Danio rerio)", "settings": "for maximum FI / maximum average overexpression level above controls, sult2st3: exposed 48–120 hpf, times above controls; for EC50: read-out: EC50 sult2st3", "procedure": "as §2, §3"}, "zebrafish embryos": {"test_system": "zebrafish embryos", "assay": "acute toxicity test from 48–120 hpf based on the OECD FET test", "type": "in vivo, zebrafish (Danio rerio)", "settings": "zebrafish embryos exposed 48–120 hpf; for LC50, class symbol: highest concentration set by water solubility", "description": "(§1) Twenty embryos per treatment were exposed to 5 concentrations of compound of interest in a 10× dilution factor from 48–120 hpf, which is the experimental time in which EDCs will be screened posteriorly. Embryos were exposed from 48–120 hpf rather than 0–96 hpf or 0–120 hpf to avoid unspecific toxicity outside of the EDC testing period, which have been chosen on the basis that endocrine pathways, e.g., thyroid metabolism, are not fully functional until 40–55 hpf in zebrafish embryos. Stock solutions of chemicals to be tested were freshly prepared in exposure medium. The highest concentration for each compound was selected according to its water solubility (Table S1). Exposures were performed in glass vessels to assure maximum bioavailability for hydrophobic compounds, and medium was not exchanged during the experiment."}, "vtg - blood": {"test_system": "vtg - blood", "settings": "cited from earlier work"}, "[5]": {"test_system": "cytochrome P450 2k22 (cyp2k22)", "assay": "cyp2k22 gene expression (qPCR) in exposed zebrafish embryos", "settings": "for EC50: read-out: EC50 cyp2k22", "procedure": "as §2, §3"}, "cyp19a1b - vtg1 mRNA": {"test_system": "cyp19a1b - vtg1 mRNA", "assay": "estrogenic markers considered together (cyp19a1b - vtg1 mRNA), zebrafish embryos", "settings": "FUL 10 µM co-exposed with E2", "procedure": "as §2, §3"}, "[6]": {"assay": "acute toxicity test from 48–120 hpf based on the OECD FET test", "type": "in vivo, zebrafish (Danio rerio)", "settings": "in vivo; zebrafish embryos exposed 48–120 hpf", "description": "as §1"}, "[7]": {"settings": "zebrafish embryos exposed 48–120 hpf, mRNA by qPCR"}, "[8]": {"settings": "FUL 1 µM co-exposed with E2 1 µM"}, "[9]": {"settings": "NIL 1 µM co-exposed with TES 1 µM, reaching control levels"}}, "note": "Where two headings read alike, the source gives them in different places.", "data": [{"compound": "C[C@]12CCC(=O)C=C1CC[C@@H]1[C@@H]2CC[C@@]2(C)[C@H]1CC[C@]2(C)O", "note": "[17α-MT, 17α-methyltestosterone]", "values": [{"measurement": "Water solubility", "setting": "[1]", "result": 33.90, "unit": "µg/mL"}, {"measurement": "EC50", "setting": "cyp19a1b - fluorescence", "result": 40, "unit": "nM"}, {"measurement": "LogEC50 (cyp19a1b - fluorescence)", "setting": "cyp19a1b - fluorescence", "result": -1.398}, {"measurement": "LogEC50 (vtg1 mRNA)", "setting": "vitellogenin 1 (vtg1); log of EC50 in μM, 48-120 h, our study", "result": 0.301}, {"measurement": "EC50", "setting": "vitellogenin 1 (vtg1); zebrafish embryos exposed 48–120 hpf, mRNA by qPCR (END: downregulation)", "result": 2000, "unit": "nM"}, {"measurement": "LogEC50 (cyp19a1b mRNA)", "setting": "[2]", "result": -0.2076}, {"measurement": "EC50", "setting": "[2]", "result": 620, "unit": "nM"}, {"measurement": "EC50", "setting": "cyp19a1b - mRNA; 0-144h, ref [28] (supplement list: Trant 2001)", "result": "~170", "unit": "nM"}, {"measurement": "LogEC50 (cyp19a1b - mRNA)", "setting": "cyp19a1b - mRNA; 0-144h, ref [28] (supplement list)", "result": -0.7696}, {"measurement": "EC50", "setting": "[3]; [7]", "result": 90, "unit": "nM"}, {"measurement": "maximum FI / maximum average overexpression level above controls, sult2st3", "setting": "[4]", "result": "4.64–8.97"}, {"measurement": "EC50", "setting": "[4]; [7]", "result": 100, "unit": "nM"}, {"measurement": "LC50", "setting": "zebrafish embryos", "result": 90200, "unit": "nM"}, {"measurement": "EC50", "setting": "vtg - blood; 12 days (adults), ref [30] (supplement list: Ankley 2001), read-out: EC50 (vtg - blood)", "result": 660, "unit": "nM"}, {"measurement": "EC50", "setting": "vtg - blood; 21 days (adults), * mean of an approximate range, ref [29] (supplement list: Pawlowski 2004), read-out: EC50 (vtg1 - blood)", "result": "~2", "unit": "nM"}, {"measurement": "LogEC50 (vtg - blood)", "setting": "vtg - blood; log of EC50 in μM, 12 days (adults), ref [30] (supplement list)", "result": -0.1805}, {"measurement": "LogEC50 (vtg1 - blood)", "setting": "vtg - blood; log of EC50 in μM, 21 days (adults), ref [29] (supplement list)", "result": -2.699}, {"measurement": "EC50", "setting": "[5]; [7]", "result": 50, "unit": "nM"}]}, {"compound": "CC/C(=C(/CC)c1ccc(O)cc1)c1ccc(O)cc1", "note": "[DES, diethylstilbestrol]", "values": [{"measurement": "EC50", "setting": "cyp19a1b - fluorescence", "result": 0.01, "unit": "nM"}, {"measurement": "LogEC50 (cyp19a1b - fluorescence)", "setting": "cyp19a1b - fluorescence", "result": -5}, {"measurement": "EC50", "setting": "[2]; Danio rerio", "result": 10, "unit": "nM"}, {"measurement": "LogEC50 (cyp19a1b mRNA)", "setting": "[2]", "result": -2}, {"measurement": "EC50", "setting": "cyp19a1b - mRNA; 2-48 h, ref [6] (supplement list: Kishida 2001)", "result": "~5.5", "unit": "nM"}, {"measurement": "LogEC50 (cyp19a1b - mRNA)", "setting": "cyp19a1b - mRNA; 2-48 h, ref [6] (supplement list)", "result": -2.26}, {"measurement": "LC50, class symbol", "setting": "zebrafish embryos", "result": "-"}]}, {"compound": "C[C@]12CC[C@@H]3c4ccc(O)cc4C[C@@H](CCCCCCCCC[S+]([O-])CCCC(F)(F)C(F)(F)F)[C@H]3[C@@H]1CC[C@@H]2O", "note": "(stereo partly drawn) [FUL, fulvestrant]", "values": [{"measurement": "rescue effects at 10 µM antagonist", "setting": "cyp19a1b - vtg1 mRNA", "result": "no more rescue effects than those observed at 1 µM"}, {"measurement": "FI vtg1 after co-exposure with antagonist", "setting": "vitellogenin 1 (vtg1); [8]", "result": 205.50}, {"measurement": "rescue effect: decrease of vtg1 compared to single exposure of E2", "setting": "vitellogenin 1 (vtg1); [8]", "result": 47.89, "unit": "%"}, {"measurement": "FI cyp19a1b after co-exposure with antagonist", "setting": "[2]; [8]", "result": 57.17}, {"measurement": "LC50, class symbol", "setting": "zebrafish embryos", "result": "-"}]}, {"compound": "C[C@]12CC[C@H]3[C@@H](CCC4=CC(=O)CC[C@@H]43)[C@@H]1CC[C@@H]2O", "note": "[NAN, nandrolone]", "values": [{"measurement": "EC50", "setting": "vitellogenin 1 (vtg1); Danio rerio", "result": 1720, "unit": "nM"}, {"measurement": "EC50", "setting": "[2]; Danio rerio", "result": 200, "unit": "nM"}, {"measurement": "EC50", "setting": "[3]; Danio rerio", "result": 80, "unit": "nM"}, {"measurement": "EC50", "setting": "[4]; Danio rerio", "result": 130, "unit": "nM"}, {"measurement": "maximum FI / maximum average overexpression level above controls, sult2st3", "setting": "[4]", "result": "4.64–8.97"}, {"measurement": "LC50", "setting": "[6]", "result": 497000, "unit": "nM"}, {"measurement": "EC50", "setting": "[5]; Danio rerio", "result": 110, "unit": "nM"}]}, {"compound": "CC1(C)NC(=O)N(c2ccc([N+](=O)[O-])c(C(F)(F)F)c2)C1=O", "note": "[NIL, nilutamide]", "values": [{"measurement": "Water solubility", "setting": "[1]", "result": 4.19, "unit": "µg/mL"}, {"measurement": "rescue of TES-induced sult2st3 overexpression", "setting": "[4]; [9]", "result": "totally rescued"}, {"measurement": "LC50", "setting": "[6]", "result": 32800, "unit": "nM"}, {"measurement": "rescue of TES-induced cyp2k22 overexpression", "setting": "[5]; [9]", "result": "totally rescued"}]}, {"compound": "C=CC1(C)OC(=O)N(c2cc(Cl)cc(Cl)c2)C1=O", "note": "(stereo not drawn) [VIN, vinclozolin]", "values": [{"measurement": "LC50, class symbol", "setting": "zebrafish embryos", "result": "-"}]}]}
